Source: publication PMC11921344, “Antimicrobial peptide DiPGLa-H exhibits the most outstanding anti-infective activity among the PGLa variants based on a systematic comparison” (Applied and Environmental Microbiology, 2025)
Where two headings read alike, the source gives them in different places. Where no end group is shown, it is not given here.

What was measured:
S. aureus Mu50 = format: cell-based, Staphylococcus aureus MRSA
Method: (§1) The antibacterial activity was evaluated using a standard MIC and MBC assay according to the National Committee for Clinical Laboratory Standards (NCCLS). MIC, MBC assay, and time-kill curves for the optimal peptide are provided in the Supplementary Materials.
(§2) Antimicrobial Activity Assays. The antibacterial activity of the peptides was determined using a method designed from the National Committee for Clinical Laboratory Standards (NCCLS) in the United States. All the strains used in the experiment are preserved in the laboratory. Briefly, log phase bacterial cells were diluted in MHB to a final concentration of 0.5-1x10^5 CFU/mL. Subsequently, 50μL of different concentrations of polypeptides were incubated with 50 μL of bacterial solution in sterile 96-well plates. In the minimum inhibitory concentration (MIC) assay, the plate was incubated at 37°C for 24 h, and the minimum inhibitory concentration (MIC) was determined by the absorbance at 492 nm of the microplate reader, and the minimum inhibitory concentration (MIC) inhibited 95% of bacteria grow. Determination of minimum bactericidal concentration: the plate was incubated at 37°C for 4 hours, 50 μL of the mixture was taken out of each well, diluted with an appropriate amount of PBS, smeared on the agar plate, and cultured overnight. Colonies were counted and the initial CFU/well was retrospectively calculated the following day. The lowest concentration of peptide that kills 99.9% of bacterial cells is the minimum bactericidal concentration (µM), Each test was replicated at least 3 times.

E. coli ATCC25922 = format: cell-based, Escherichia coli
Method: as §1
as §2, with “[…],” for “the plate was incubated at 37°C for 24 h,”

E. coli = conditions: one range printed for E. coli and S. aureus; cited from earlier work
Method: (§3) PGLa, an amphibian 21-residue cationic AMP, with a net charge of +4, was found in the skin of the toad Xenopus laevis ([6]). The minimum inhibitory concentration (MIC) of PGLa against Escherichia coli 25922 and S. aureus 25923 were 10–50 μg/mL and 50–100 μg/mL, respectively ([6]). […] The rep ...

S. aureus = conditions: one range printed for E. coli and S. aureus; cited from earlier work
Method: as §3

[1] = tested on: E. coli K88 outer membrane; assay: Outer membrane integrity assay (NPN uptake); format: cell-based, Escherichia coli
Method: The outer and inner membrane integrity of bacterial cells treated with peptides was assessed using NPN and PI staining, respectively. Full details are provided in the Supplementary Materials.
Membrane permeabilization. Outer membrane integrity assay. The fluorescent probe NPN (Sigma-Aldrich, catalog no. 104043, ≥98%) was used to assess the outer membrane integrity of DiPGLa-H or mucin-treated E. coli K88. Briefly, log-medium E. coli K88 cells (OD600 = 0.2) were incubated with NPN (10 μM) in 5 mM HEPES buffer (pH 7.4, containing 5 mM glucose) for 30 min, and background fluorescence was recorded for subtraction. (excitation λ = 350 nm, emission λ = 420 nm) using a microplate reader (Varioskan Flash; Thermo, America). Subsequently, 100 μL of cell suspension was mixed with an equal volume of peptide solutions ranging in concentration from 4 to 64 μM in a sterile 96-well black plate. Fluorescence was recorded over time until no further increase in fluorescence was detected. Each test was performed independently, in duplicate, with three biological replicates, and results were converted to percent NPN uptake using the equation. NPN uptake (%) = (Fobs – Fbuffer)/ (Fpositive – Fbuffer) ×100%.
where Fobs is the observed fluorescence at a given peptide concentration, Fbuffer is the fluorescence of the buffer, and Fpositive is the fluorescence of NPN with microbial cells upon addition of 10 μg/mL polymyxin B (Sigma), which was used as a positive control because of its strong outer membrane-permeabilizing property. Untreated cell suspension served as the negative control.

Substance: KIAKVALKALKIAKVALKAL-NH2 (C-terminus assumed) [DiPGLa-H]
- MBC S. aureus Mu50 (S. aureus Mu50; Mu50, 4 h): 16 µM
- MIC S. aureus Mu50 (S. aureus Mu50; Mu50, 24 h): 8 µM
- MIC S. aureus Mu50 (S. aureus Mu50; lowest concentration inhibiting 95% of growth, MHB, 0.5-1x10^5 CFU/mL, 37°C 24 h, absorbance 492 nm, three independent experiments): 8 µM
- MBC E. coli ATCC25922 (E. coli ATCC25922; ATCC25922, 4 h): 8 µM
- MIC E. coli ATCC25922 (E. coli ATCC25922; ATCC25922, 24 h): 8 µM
- MIC E. coli (E. coli): 0.75 to 1.5 µM
- MIC S. aureus (S. aureus): 0.75 to 1.5 µM
- outer membrane permeability (NPN uptake) ([1]; 64 µM peptide, relative to 10 µg/mL polymyxin B = 100%): 184.4%
- membrane permeability ([1]; 1× MIC): approximately 80%
